Assay results: ChEMBL document CHEMBL1255512, “Pyrazolo[1,5-a]pyrimidine acetamides: 4-Phenyl alkyl ether derivatives as potent ligands for the 18 kDa translocator protein (TSPO)” (Bioorg Med Chem Lett, 2010)

How the values were obtained:
[1] = biological target: T1, Alpha-1B adrenergic receptor (Homo sapiens) (UniProt P35368); assay: Inhibition of Alpha-1B adrenergic receptor at 10 uM
T1 sequence (whole entry): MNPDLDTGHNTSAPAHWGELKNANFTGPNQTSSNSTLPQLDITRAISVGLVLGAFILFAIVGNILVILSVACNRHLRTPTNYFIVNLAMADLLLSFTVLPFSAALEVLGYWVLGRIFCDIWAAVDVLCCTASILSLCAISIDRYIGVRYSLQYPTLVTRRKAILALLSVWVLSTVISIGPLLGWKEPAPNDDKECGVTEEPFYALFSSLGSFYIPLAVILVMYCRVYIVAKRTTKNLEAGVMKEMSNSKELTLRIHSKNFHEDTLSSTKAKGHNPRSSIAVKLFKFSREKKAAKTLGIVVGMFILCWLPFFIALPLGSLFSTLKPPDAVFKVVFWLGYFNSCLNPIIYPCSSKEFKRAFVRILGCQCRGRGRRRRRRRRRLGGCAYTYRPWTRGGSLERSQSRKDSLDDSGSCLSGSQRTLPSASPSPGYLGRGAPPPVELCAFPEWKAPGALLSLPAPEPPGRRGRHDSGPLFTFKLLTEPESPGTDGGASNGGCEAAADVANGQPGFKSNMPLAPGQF

[2] = biological target: T2, Alpha-2C adrenergic receptor (Homo sapiens) (UniProt P18825); assay: Inhibition of Alpha-2C adrenergic receptor at 10 uM
T2 sequence (whole entry): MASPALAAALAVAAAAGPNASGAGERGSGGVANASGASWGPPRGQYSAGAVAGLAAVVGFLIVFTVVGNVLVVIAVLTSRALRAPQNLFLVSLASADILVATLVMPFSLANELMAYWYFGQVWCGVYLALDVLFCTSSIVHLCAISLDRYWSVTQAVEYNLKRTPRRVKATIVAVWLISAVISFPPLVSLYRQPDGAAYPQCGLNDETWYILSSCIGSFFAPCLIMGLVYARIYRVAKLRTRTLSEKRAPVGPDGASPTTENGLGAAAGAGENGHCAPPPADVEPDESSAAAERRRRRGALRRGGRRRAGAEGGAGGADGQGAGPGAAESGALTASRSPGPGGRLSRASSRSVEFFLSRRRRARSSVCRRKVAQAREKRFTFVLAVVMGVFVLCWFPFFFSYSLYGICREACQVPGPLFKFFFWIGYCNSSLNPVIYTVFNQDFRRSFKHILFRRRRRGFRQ

[3] = biological target: Beta-2 adrenergic receptor (Homo sapiens) (UniProt P07550); assay: Inhibition of beta2 adrenergic receptor at 10 uM
Sequence of Beta-2 adrenergic receptor (Homo sapiens) (P07550 whole entry, looked up): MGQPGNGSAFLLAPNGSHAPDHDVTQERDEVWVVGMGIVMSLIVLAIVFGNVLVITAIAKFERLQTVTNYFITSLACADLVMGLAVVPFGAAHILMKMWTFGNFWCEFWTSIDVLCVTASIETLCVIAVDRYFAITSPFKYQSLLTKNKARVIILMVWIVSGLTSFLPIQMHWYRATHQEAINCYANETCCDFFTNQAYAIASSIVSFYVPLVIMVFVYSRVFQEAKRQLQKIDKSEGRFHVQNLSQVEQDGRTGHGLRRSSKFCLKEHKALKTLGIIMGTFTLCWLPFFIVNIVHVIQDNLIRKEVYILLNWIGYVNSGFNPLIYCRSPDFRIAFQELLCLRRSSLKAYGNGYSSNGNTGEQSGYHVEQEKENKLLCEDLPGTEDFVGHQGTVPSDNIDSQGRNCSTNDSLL

[4] = biological target: T3, D(4) dopamine receptor (Homo sapiens) (UniProt P21917); assay: Inhibition of D4 dopamine receptor at 10 uM
T3 sequence (whole entry): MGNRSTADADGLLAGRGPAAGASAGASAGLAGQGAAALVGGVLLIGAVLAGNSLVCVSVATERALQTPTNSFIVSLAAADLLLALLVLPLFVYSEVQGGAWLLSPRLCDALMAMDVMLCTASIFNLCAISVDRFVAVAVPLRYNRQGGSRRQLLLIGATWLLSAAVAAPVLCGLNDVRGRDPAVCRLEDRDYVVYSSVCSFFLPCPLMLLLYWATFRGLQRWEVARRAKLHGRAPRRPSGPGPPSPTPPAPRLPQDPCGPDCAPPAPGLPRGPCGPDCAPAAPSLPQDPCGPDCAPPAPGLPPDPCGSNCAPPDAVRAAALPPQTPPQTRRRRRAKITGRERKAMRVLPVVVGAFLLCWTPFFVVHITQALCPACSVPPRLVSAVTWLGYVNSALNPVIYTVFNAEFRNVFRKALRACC

[5] = biological target: Histamine H2 receptor (Homo sapiens) (UniProt P25021); assay: Inhibition of H2 receptor at 10 uM
Sequence of Histamine H2 receptor (Homo sapiens) (P25021 whole entry): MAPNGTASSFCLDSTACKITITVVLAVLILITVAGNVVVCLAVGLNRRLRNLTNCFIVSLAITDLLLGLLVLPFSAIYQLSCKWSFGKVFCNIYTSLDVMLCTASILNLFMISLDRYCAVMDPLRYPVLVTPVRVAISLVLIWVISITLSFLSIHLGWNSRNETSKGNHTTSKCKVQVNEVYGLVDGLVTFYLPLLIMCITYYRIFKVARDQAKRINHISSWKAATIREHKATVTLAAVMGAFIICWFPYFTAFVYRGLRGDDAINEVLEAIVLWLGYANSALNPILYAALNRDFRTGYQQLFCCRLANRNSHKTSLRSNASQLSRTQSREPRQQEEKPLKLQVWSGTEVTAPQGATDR

[6] = biological target: 5-hydroxytryptamine receptor 2A (Homo sapiens) (UniProt P28223); assay: Inhibition of 5-HT2A receptor at 10 uM
Sequence of 5-hydroxytryptamine receptor 2A (Homo sapiens) (P28223 whole entry): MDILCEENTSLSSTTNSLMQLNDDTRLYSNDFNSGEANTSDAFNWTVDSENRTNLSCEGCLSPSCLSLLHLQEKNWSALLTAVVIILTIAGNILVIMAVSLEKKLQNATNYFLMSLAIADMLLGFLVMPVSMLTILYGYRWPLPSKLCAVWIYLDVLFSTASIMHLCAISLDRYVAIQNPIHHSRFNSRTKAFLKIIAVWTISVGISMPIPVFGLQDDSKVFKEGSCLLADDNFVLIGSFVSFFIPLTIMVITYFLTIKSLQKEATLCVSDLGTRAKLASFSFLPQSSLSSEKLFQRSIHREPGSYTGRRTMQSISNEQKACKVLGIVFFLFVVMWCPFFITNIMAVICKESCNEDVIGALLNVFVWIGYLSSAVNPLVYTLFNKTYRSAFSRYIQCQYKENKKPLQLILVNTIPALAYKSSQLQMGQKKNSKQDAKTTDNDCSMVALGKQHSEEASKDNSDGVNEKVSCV

[7] = biological target: 5-hydroxytryptamine receptor 6 (Homo sapiens) (UniProt P50406); assay: Inhibition of 5-HT6 receptor at 10 uM
Sequence of 5-hydroxytryptamine receptor 6 (Homo sapiens) (P50406 whole entry): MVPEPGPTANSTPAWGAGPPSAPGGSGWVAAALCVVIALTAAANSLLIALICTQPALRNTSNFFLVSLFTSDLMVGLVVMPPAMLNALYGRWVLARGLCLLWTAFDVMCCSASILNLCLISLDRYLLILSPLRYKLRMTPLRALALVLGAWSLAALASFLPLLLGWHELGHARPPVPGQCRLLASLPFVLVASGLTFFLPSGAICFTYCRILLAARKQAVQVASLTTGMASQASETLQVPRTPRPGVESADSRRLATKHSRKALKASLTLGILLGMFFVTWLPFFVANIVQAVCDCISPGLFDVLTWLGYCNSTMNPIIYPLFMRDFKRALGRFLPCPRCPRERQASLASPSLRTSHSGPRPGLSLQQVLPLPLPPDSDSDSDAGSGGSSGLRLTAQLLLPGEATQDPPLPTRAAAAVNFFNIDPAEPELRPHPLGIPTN

[8] = biological target: 5-hydroxytryptamine receptor 7 (Homo sapiens) (UniProt P34969); assay: Inhibition of 5-HT7 receptor at 10 uM
Sequence of 5-hydroxytryptamine receptor 7 (Homo sapiens) (P34969 whole entry): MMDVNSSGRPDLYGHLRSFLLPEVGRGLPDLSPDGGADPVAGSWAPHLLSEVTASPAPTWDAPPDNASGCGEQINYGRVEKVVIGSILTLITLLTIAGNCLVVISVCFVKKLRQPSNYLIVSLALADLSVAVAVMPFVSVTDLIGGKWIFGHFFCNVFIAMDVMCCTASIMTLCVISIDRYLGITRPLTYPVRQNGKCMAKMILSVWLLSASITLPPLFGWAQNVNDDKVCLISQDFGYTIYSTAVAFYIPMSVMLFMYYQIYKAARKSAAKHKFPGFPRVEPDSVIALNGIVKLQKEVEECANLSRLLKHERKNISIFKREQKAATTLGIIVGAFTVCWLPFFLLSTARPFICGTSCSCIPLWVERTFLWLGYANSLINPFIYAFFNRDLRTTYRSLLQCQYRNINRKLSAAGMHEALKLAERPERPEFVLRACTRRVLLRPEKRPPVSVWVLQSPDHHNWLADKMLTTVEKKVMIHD

[9] = biological target: Sodium-dependent serotonin transporter (Homo sapiens) (UniProt P31645); assay: Inhibition of 5HT transporter at 10 uM
Sequence of Sodium-dependent serotonin transporter (Homo sapiens) (P31645 whole entry, looked up): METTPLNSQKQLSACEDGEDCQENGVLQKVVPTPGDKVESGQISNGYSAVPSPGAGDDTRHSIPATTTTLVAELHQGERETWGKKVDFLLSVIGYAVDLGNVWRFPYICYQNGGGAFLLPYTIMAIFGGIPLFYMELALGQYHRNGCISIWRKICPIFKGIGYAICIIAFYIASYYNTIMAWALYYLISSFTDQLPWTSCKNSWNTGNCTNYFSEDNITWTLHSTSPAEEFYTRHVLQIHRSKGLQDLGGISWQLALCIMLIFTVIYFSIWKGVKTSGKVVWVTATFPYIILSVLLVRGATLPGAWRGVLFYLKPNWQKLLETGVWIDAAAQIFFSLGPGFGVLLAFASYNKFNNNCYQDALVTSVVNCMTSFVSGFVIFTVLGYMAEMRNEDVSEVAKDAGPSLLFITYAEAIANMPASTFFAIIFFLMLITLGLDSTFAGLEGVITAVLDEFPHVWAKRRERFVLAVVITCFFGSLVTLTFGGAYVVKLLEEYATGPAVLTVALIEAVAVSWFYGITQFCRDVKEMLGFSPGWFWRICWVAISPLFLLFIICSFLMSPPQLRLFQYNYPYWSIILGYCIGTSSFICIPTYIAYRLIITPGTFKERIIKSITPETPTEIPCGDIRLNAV

[10] = biological target: T4, Muscarinic acetylcholine receptor M1 (Homo sapiens) (UniProt P11229); assay: Inhibition of M1 muscarinic receptor at 10 uM
T4 sequence (whole entry): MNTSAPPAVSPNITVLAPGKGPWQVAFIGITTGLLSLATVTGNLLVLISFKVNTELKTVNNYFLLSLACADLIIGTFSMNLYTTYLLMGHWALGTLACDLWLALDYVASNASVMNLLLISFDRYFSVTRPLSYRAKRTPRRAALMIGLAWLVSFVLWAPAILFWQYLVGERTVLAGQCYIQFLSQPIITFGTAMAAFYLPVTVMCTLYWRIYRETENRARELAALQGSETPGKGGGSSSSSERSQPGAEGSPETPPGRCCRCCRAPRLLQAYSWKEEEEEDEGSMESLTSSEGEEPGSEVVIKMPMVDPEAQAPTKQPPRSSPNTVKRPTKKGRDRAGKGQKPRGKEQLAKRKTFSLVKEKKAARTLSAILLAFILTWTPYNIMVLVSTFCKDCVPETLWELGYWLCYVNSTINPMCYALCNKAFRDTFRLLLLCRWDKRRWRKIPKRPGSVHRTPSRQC

[11] = biological target: T5, Muscarinic acetylcholine receptor M2 (Homo sapiens) (UniProt P08172); assay: Inhibition of M2 muscarinic receptor at 10 uM
T5 sequence (whole entry): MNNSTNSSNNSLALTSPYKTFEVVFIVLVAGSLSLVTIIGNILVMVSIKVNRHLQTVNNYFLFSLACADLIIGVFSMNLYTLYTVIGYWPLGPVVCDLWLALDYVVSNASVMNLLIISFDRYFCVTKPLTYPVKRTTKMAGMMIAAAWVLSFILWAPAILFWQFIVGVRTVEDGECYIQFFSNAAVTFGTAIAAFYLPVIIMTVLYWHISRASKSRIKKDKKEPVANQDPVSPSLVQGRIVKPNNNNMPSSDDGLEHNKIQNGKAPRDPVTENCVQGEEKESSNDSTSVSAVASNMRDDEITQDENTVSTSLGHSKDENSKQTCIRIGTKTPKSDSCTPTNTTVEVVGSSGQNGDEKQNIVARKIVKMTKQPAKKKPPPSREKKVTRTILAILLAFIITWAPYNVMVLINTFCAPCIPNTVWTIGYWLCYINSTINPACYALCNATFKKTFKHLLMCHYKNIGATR

[12] = biological target: 5-hydroxytryptamine receptor 2B (Homo sapiens, UniProt P41595); assay: Inhibition of 5-HT2B receptor at 10 uM
Sequence of 5-hydroxytryptamine receptor 2B (P41595 whole entry): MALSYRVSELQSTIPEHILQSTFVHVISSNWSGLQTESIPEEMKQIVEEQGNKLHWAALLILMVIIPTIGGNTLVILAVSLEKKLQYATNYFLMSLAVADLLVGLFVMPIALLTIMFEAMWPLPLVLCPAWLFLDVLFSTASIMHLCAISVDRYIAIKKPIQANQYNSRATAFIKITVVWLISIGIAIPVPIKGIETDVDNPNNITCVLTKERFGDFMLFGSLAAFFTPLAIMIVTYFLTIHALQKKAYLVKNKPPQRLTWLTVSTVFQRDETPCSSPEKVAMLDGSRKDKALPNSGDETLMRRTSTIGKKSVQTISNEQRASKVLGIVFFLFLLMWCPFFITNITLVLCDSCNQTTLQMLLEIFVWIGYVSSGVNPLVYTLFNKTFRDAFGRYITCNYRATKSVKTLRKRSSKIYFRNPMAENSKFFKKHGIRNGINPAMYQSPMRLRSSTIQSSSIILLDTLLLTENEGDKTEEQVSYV

Measured: inhibition

CCCCOc1ccc(-c2nn3c(C)cc(C)nc3c2CC(=O)N(CC)CC)cc1
< 50%: [1] | [2] | [3] | [4] | [5] | [6] | [7] | [8] | [9] | [10] | [11]

C#CCOc1ccc(-c2nn3c(C)cc(C)nc3c2CC(=O)N(CC)CC)cc1
< 50%: [1] | [2] | [3] | [4] | [5] | [6] | [12] | [7] | [8] | [9] | [10] | [11]

CCCOc1ccc(-c2nn3c(C)cc(C)nc3c2CC(=O)N(CC)CC)cc1
< 50%: [2] | [3] | [4] | [5] | [6] | [12] | [7] | [8] | [9] | [10] | [11]

CCOc1ccc(-c2nn3c(C)cc(C)nc3c2CC(=O)N(CC)CC)cc1
< 50%: [1] | [2] | [3] | [4] | [5] | [6] | [12] | [7] | [8] | [9] | [10] | [11]
